# Where two headings read alike, the source gives them in different places.
# Experiments:
# Rice Streak Virus (RSV) = test: Control test on rice streak virus (RSV) (field trial of nursery box application); format: in vivo, rice stripe virus; settings: for phytotoxicity: rice (cultivar: Hinohikari)
# Experimental: Rice seedlings (cultivar: Hinohikari) were grown in a greenhouse according to an ordinary procedure and transplanted to an open paddy field. Granules containing 4% of tolprocarb (a) and granules containing 6% of dinotefuran (insecticidal ingredient) formulated according to Formulation Example 2 were respectively treated or were treated in combination in 50 g per box in a nursery box on the day of transplantation. 35 days after transplantation, larvae of RSV-carrying small brown planthopper were released for one week to inoculate rice plants by sucking. At 79 days and 99 days after transplantation, the presence or absence of the unshooting of head was examined.
# [1] = system: Chinese cabbage soft rot bacteria (Erwinia carotovora subsp. carotovora); test: Control test on Chinese cabbage soft rot (soil incorporation test); format: in vivo; settings: for phytotoxicity: Chinese cabbage plant (cultivar: Muso); for control effect on the Chinese cabbage soft rot (in words): whole soil incorporation at the time of planting
# Text: Granules containing 3% of tolprocarb (a) (trade name; Sanblas (registered trademark) granules (manufactured by Mitsui Chemical Agro Co., Ltd.)), granules containing 5% of pyroquilon (b) (trade name; Coratop (registered trademark) granules (manufactured by Mitsui Chemical Agro Co., Ltd.)), granules containing 1.5% of simeconazole (fungicidal component) (trade name; Mongalite (registered trademark) granules (manufactured by Mitsui Chemical Agro Co., Ltd.)) and flowable containing 20% of penthiopyrad (fungicidal component) were respectively incorporated or were incorporated in combination into a pot soil in a predetermined amount. Then, the Chinese cabbage was planted in the pot soil. At 14 days after chemical agent treatment, the Chinese cabbage soft rot was inoculated. […] Thereafter, the inoculated plantes were put in a 25° C. greenhouse to promote infection for 2 days, and the control effect was examined. The infection was examined by the degree of infection, and the disease severity index was calculated based on the degree of infection. The control value was calculated from the disease severity index.
# Severity index=((the number of leaves of infection index 0×0)+(the number of leaves of infection index 1×1)+(the number of leaves of infection index 2×2)+(the number of leaves of infection index 3×3)/(the number of leaves examined×3)×100
# (§1) The synergistic effect was calculated from the following Colby's equation. Synergistic effect (expected value)=(control value of compound A+control value of compound B)−(control value of compound A×control value of compound B)/100
# (§2) When the control value exceeded the expected value in the case of mixing the compounds and applying the mixed product, it was determined that there was a synergistic effect.
# [2] = system: tomato yellow leaf curl disease (TYLCV); test: Control test on tomato yellow leaf curl disease (TYLCV) (soil drench test); format: in vivo, tomato yellow leaf curl virus; settings: for phytotoxicity: tomato (cultivar: Sekai-ichi); for control effect on tomato yellow leaf curl disease (TYLCV) (in words): treatment on 7 day before inoculation
# Experimental: Granules containing 3% of tolprocarb (a) (trade name; Sanblas (registered trademark) granules (manufactured by Mitsui Chemical Agro Co., Ltd.)), granules containing 5% of pyroquilon (b) (trade name; Coratop (registered trademark) granules (manufactured by Syngenta Japan Ltd.)) and granules containing 1% of dinotefran (trade name; Starkle (registered trademark) granules (manufactured by Mitsui Chemicals Agro Co., Ltd.)) were respectively treated or were treated in combination to plant foot of tomato in a predetermined amount. Seven days after chemical agent treatment, the plants were inoculated by sucking of one adult of TYLCV-carrying tobacco whitefly biotype Q per plant for 3 days. Thereafter, the inoculated plants were put in the greenhouse to promote infection, and the control effect was examined after the infection. The infection was examined by the degree of infection, and the disease severity index was calculated based on the degree of infection. The control value was calculated from the disease severity index.
# 1: observation of initial infection (delayed infection)
# 2: observation of infection Severity index=((the number of plants of infection index 0×0)+(the number of plants of infection index 1×1)+(the number of plants of infection index 2×2)/(the number of plants examined×2))×100
# as §1, §2
# [3] = system: cucumber mosaic virus (CMV); settings: for Number of CMV Infected Plants: Acute wilt / Number of CMV Infected Plants: Mosaic / Number of CMV Infected Plants: No Infection: 5 plants; for Number of CMV Infected Plants: Acute wilt / Number of CMV Infected Plants: Mosaic / Number of CMV Infected Plants: No Infection / Control value / Disease Severity index: drench 3 days before inoculation, g ai/10a: (a) 90, (b) 150, dinotefuran 120, thiamethoxam 60, (h) 250, mixtures 90 + 120 and 150 + 60; for phytotoxicity: cucumber (cultivar: Sagami-hanjiro); for control effect on cucumber mosaic virus (CMV) (in words): treatment on 3 day before inoculation
# [4] = system: cucumber mosaic virus (CMV); settings: for Control value / Disease Severity index / Number of CMV Infected Leaves: Acute wilt / Number of CMV Infected Leaves: Mosaic / Number of CMV Infected Leaves: No Infection: drench 1 day before inoculation; for Number of CMV Infected Leaves: Acute wilt / Number of CMV Infected Leaves: Mosaic / Number of CMV Infected Leaves: No Infection: 3 checked; for phytotoxicity: cucumber (cultivar: Sagami-hanjiro)
# [5] = system: tomato powdery mildew (Oidium neolycopersici); test: Control test on tomato powdery mildew (soil incorporation test); format: in vivo
# Experimental: A tomato powdery mildew control test was performed in a greenhouse. A plastic pots having a diameter of 20 cm were used for the test. As test chemical agents, granules containing 3% of tolprocarb (compound (a)) (trade name; Sanblas (registered trademark) granules (Mitsui Chemical Agro Inc.)) commercially available and granules containing 5% of pyroquilon (compound (b)) (trade name: Coratop (registered trademark) granules (manufactured by Syngenta Japan Co., Ltd.)) were mixed to soil on the entire surface of the pot in an amount equivalent to 3 kg/10a. Also, the simplified emulsifiable concentrate E(c) containing the compound (c) was suspended in the distilled water, and was irrigated onto the entire surface of the pot to be incorporated. As the comparative example, granules (trade name: Oryzemate (registered trademark) granules (Meiji Seika Pharma Co., Ltd.)) containing 8% of probenazole (comparative compound (h)) was mixed to soil on the entire surface of the pot in an amount equivalent to 3 kg/10a. Tomato (cultivar: Ohgata-fukuju) grown up to 4-leaf stage of true leaf was planted in a plastic pots having a diameter of 20 cm and were treated with chemical agents. Plants were grown in a glass greenhouse and naturally occurring tomato powdery mildew (Oidium neolycopersici) was examined one month after chemical agent treatment. In the examination, an infection index of six leaves per pot was examined to calculate disease severity index. The control value was calculated from the disease severity index.
# The criteria for the degree of infection are as follows.
# 1: lesion area rate of less than 5%
# 2: lesion area rate from 5% to 25%
# 3: lesion area rate from 25% to 50%
# The severity index was calculated from the following equation. Severity index=((the number of compound leaves of infection index 0×0)+(the number of compound leaves of infection index 1×1)+(the number of compound leaves of infection index 2×2)+(the number of compound leaves of infection index 3×3)+(the number of compound leaves of infection index 4×4/(the number of compound leaves examined×4))×100
# [6] = Total of plots, g ai/10a: (a) 90, (b) 150, (c) 90, (h) 240
# [7] = Total, one month after treatment, g ai/10a: (a) 90, (b) 150, (c) 90, (h) 240
# [8] = plot I, g ai/10a: (a) 90, (b) 150, (c) 90, (h) 240
# [9] = plot II, g ai/10a: (a) 90, (b) 150, (c) 90, (h) 240
# [10] = plot III, g ai/10a: (a) 90, (b) 150, (c) 90, (h) 240
smiles,measurement,setting,value
"Cc1ccc(C(=O)NC[C@@H](NC(=O)OCC(F)(F)F)C(C)C)cc1 [Tolprocarb (a), tolprocarb]",phytotoxicity,Rice Streak Virus (RSV),not observed
same,phytotoxicity,[1],not observed
same,control effect on the Chinese cabbage soft rot (in words),[1],excellent control effect
same,phytotoxicity,[2],not observed
same,control effect on tomato yellow leaf curl disease (TYLCV) (in words),[2],excellent control effect
same,Number of CMV Infected Plants: Acute wilt,[3],0
same,Number of CMV Infected Plants: Mosaic,[3],3
same,Number of CMV Infected Plants: No Infection,[3],2
same,phytotoxicity,[3],not observed
same,Control value,[3],66.7
same,Disease Severity index,[3],30.0
same,control effect on cucumber mosaic virus (CMV) (in words),[3],excellent control effect
same,Control value,[4]; 22.5 g ai/10a,66.7
same,Disease Severity index,[4]; 22.5 g ai/10a,33.3
same,Number of CMV Infected Leaves: Acute wilt,[4]; 22.5 g ai/10a,1
same,Number of CMV Infected Leaves: Mosaic,[4]; 22.5 g ai/10a,0
same,Number of CMV Infected Leaves: No Infection,[4]; 22.5 g ai/10a,2
same,Control value,[4]; 45 g ai/10a,16.7
same,Disease Severity index,[4]; 45 g ai/10a,83.3
same,Number of CMV Infected Leaves: Acute wilt,[4]; 45 g ai/10a,2
same,Number of CMV Infected Leaves: Mosaic,[4]; 45 g ai/10a,1
same,Number of CMV Infected Leaves: No Infection,[4]; 45 g ai/10a,0
same,Control value,[4]; 90 g ai/10a,50.0
same,Disease Severity index,[4]; 90 g ai/10a,50.0
same,Number of CMV Infected Leaves: Acute wilt,[4]; 90 g ai/10a,1
same,Number of CMV Infected Leaves: Mosaic,[4]; 90 g ai/10a,1
same,Number of CMV Infected Leaves: No Infection,[4]; 90 g ai/10a,1
same,phytotoxicity,[4],not observed
same,control effect on cucumber mosaic virus (CMV) (in words),[4]; treatment on 1 day before inoculation,excellent control effect
"CSC(=O)c1cccc2nnsc12 [Acibenzolar-S-methyl (i), acibenzolar S methyl, reference compound]",Control value,[4]; 250 g ai/10a,50.0
same,Disease Severity index,[4]; 250 g ai/10a,50.0
same,Number of CMV Infected Leaves: Acute wilt,[4]; 250 g ai/10a,0
same,Number of CMV Infected Leaves: Mosaic,[4]; 250 g ai/10a,3
same,Number of CMV Infected Leaves: No Infection,[4]; 250 g ai/10a,0
same,phytotoxicity,[4],not observed
"Cc1cccc2sc3nncn3c12 [Tricyclazole (c), tricyclazole]",Infection index 0 (number of leaves),[5]; [6],8
same,Infection index 1 (number of leaves),[5]; [6],8
same,Infection index 2 (number of leaves),[5]; [6],2
same,Infection index 3 (number of leaves),[5]; [6],0
same,Infection index 4 (number of leaves),[5]; [6],0
same,Control value,[5]; [7],66.7
same,Disease Severity index,[5]; [7],16.7
same,Infection index 0 (number of leaves),[5]; [8],0
same,Infection index 1 (number of leaves),[5]; [8],5
same,Infection index 2 (number of leaves),[5]; [8],1
same,Infection index 3 (number of leaves),[5]; [8],0
same,Infection index 4 (number of leaves),[5]; [8],0
same,Infection index 0 (number of leaves),[5]; [9],5
same,Infection index 1 (number of leaves),[5]; [9],1
same,Infection index 2 (number of leaves),[5]; [9],0
same,Infection index 3 (number of leaves),[5]; [9],0
same,Infection index 4 (number of leaves),[5]; [9],0
same,Infection index 0 (number of leaves),[5]; [10],3
same,Infection index 1 (number of leaves),[5]; [10],2
same,Infection index 2 (number of leaves),[5]; [10],1
same,Infection index 3 (number of leaves),[5]; [10],0
same,Infection index 4 (number of leaves),[5]; [10],0
same,phytotoxicity,"[5]; tomato (cultivar: Ohgata-fukuju), g ai/10a: (a) 90, (b) 150, (c) 90, (h) 240",not observed
same,control effect on tomato powdery mildew (in words),[5]; whole soil incorporation,excellent control effect
"O=C1CCc2cccc3c2N1CC3 [Pyroquilon (b), pyroquilon]",phytotoxicity,[1],not observed
same,control effect on the Chinese cabbage soft rot (in words),[1],excellent control effect
same,phytotoxicity,[2],not observed
same,control effect on tomato yellow leaf curl disease (TYLCV) (in words),[2],excellent control effect
same,Number of CMV Infected Plants: Acute wilt,[3],0
same,Number of CMV Infected Plants: Mosaic,[3],4
same,Number of CMV Infected Plants: No Infection,[3],1
same,phytotoxicity,[3],not observed
same,Control value,[3],55.6
same,Disease Severity index,[3],40.0
same,control effect on cucumber mosaic virus (CMV) (in words),[3],excellent control effect
"C[Si](C)(C)CC(O)(Cn1cncn1)c1ccc(F)cc1 (stereo not drawn) [simeconazole, reference compound]",phytotoxicity,[1],not observed
"CN1COCN(Cc2cnc(Cl)s2)/C1=N\[N+](=O)[O-] [Thiamethoxam, thiamethoxam]",Number of CMV Infected Plants: Acute wilt,[3],1
same,Number of CMV Infected Plants: Mosaic,[3],3
same,Number of CMV Infected Plants: No Infection,[3],1
same,phytotoxicity,[3],not observed
same,Control value,[3],44.4
same,Disease Severity index,[3],50.0
"C=CCOC1=NS(=O)(=O)c2ccccc21 [Probenazole (h), probenazole]",Number of CMV Infected Plants: Acute wilt,[3],0
same,Number of CMV Infected Plants: Mosaic,[3],2
same,Number of CMV Infected Plants: No Infection,[3],3
same,phytotoxicity,[3],not observed
same,Control value,[3],77.8
same,Disease Severity index,[3],20.0
"CN/C(=N/CC1CCOC1)N[N+](=O)[O-] (stereo not drawn) [Dinotefuran, dinotefuran]",control effect on the rice stripe blight (RSV) (in words),Rice Streak Virus (RSV); nursery box application,effect of delaying the occurrence of the unshooting of head
same,phytotoxicity,Rice Streak Virus (RSV),not observed
same,phytotoxicity,[2],not observed
same,Number of CMV Infected Plants: Acute wilt,[3],2
same,Number of CMV Infected Plants: Mosaic,[3],2
same,Number of CMV Infected Plants: No Infection,[3],1
same,phytotoxicity,[3],not observed
same,Control value,[3],33.3
same,Disease Severity index,[3],60.0
"CC(C)CC(C)c1sccc1NC(=O)c1cn(C)nc1C(F)(F)F (stereo not drawn) [penthiopyrad, reference compound]",phytotoxicity,[1],not observed

# From patent publication US11185076B2 (priority 2017, dated 2021)
